The source of these data is patent publication US20240366577A1, “CONTROLLED LONG-TERM DRUG DELIVERY AND METHODS THEREOF” (THE JOHNS HOPKINS UNIVERSITY, priority 2021, published 2024).

The test system of experiment [1] is 4T1-luciferase tumors. Put plainly: 4T1-luciferase tumor IVIS bioluminescence, co-injection with crystals. The note with it: 2 mg of 150-200 μm crystals co-injected with 4T1-luciferase cells; up to 20 days; vs PBS controls; p<0.05. Format: in vivo, BALB/c mice. The protocol:
To determine long-term potential of tunable, slow-releasing crystal-formulated sorafenib, efficacy of a single injection of the injectable drug composition was measured in a syngeneic model of triple negative breast cancer (TNBC): 4T1 tumors grown orthotopically in the mammary fat pad of BALB/c mice. For in vivo testing, mice were anesthetized with inhaled isofluorane and inoculated with 4T1, also referred to as 4T1-Luciferase, Luc, cancer cells, injected into the right inguinal mammary fat pad, as shown in FIG. 3A. […] Tumor presence was quantified over time up to 20 days post injection in both cases based on measured luminescence in equivalent regions of interest (ROIs, white circles), depicted in FIG. 3C. […]
4T1 or 4T1-luc2 cells were trypsinized using 0.25% Trypsin-EDTA, then diluted with the appropriate complete culture media and spun in a centrifuge at 300 g for 5 min. […] Cells were counted with a Countess automated cell counter. […] Tumors were measured externally using a digital caliper, and volume was calculated (!″* (length * height) *−length * height). […]
4T1-Luc2 tumor-injected mice were dosed with RediJect D-Luciferin K+ salt 5 minutes prior to examination. […] Equivalent regions of interest (ROIs) were used for quantification of tumor groups.

For experiment [2], the system named is endothelial cell marker Cd31. Put plainly: qPCR of retrieved tumors: Cd31. It is filed as in vivo, BALB/c mice. The note with it: crystals, compared to daily liquid bolus drug treatment; tumors at end of study. The protocol: To determine the anti-angiogenic efficacy of each sorafenib treatment group, qPCR gene expression analysis was performed on retrieved tumors at the conclusion of the study. In particular, analysis for levels of endothelial cell marker Cd31, vascular endothelial-cadherin (VE-Cdh), smooth muscle pericyte marker alpha Smooth Muscle actin (aSMact), and stem/progenitor cell marker Cd34 were conducted, as shown in FIG. 3F.
1 mL of TRIzol reagent (Cat#15596018, ThermoFisher) was added to 100 mg samples of tumor tissue and broken down with a power homogenizer (Polytron/VWR). Homogenized samples were incubated at room temperature for 5 min for complete nucleoprotein dissociation, then 0.2 ml of chloroform (Sigma) was added to each sample. Samples were shaken vigorously for 15 seconds and incubated at room temperature for 3 min before centrifuging at 12,000 g for 15 min at 4° C. The uppermost supernatant layer was pipetted into a 1.7 mL Eppendorf tube, with the remaining interphase and organic layer discarded. 0.5 mL of isopropanol (Sigma) was added to each sample, and then samples were incubated for 10 min. Samples were centrifuged at 12,000 g for 10 min at 4° C. […] Depending on size of resultant pellet, pellets were resuspended in 50-100 μL, and nucleic acid concentration was measured using a NanoDrop 2000 spectrophotometer (ThermoFisher). […]

For `CNC(=O)c1cc(Oc2ccc(NC(=O)Nc3ccc(Cl)c(C(F)(F)F)c3)cc2)ccn1` [crystalline sorafenib, sorafenib], the “anti-tumor efficacy (tumor luminescence in ROIs)” value in experiment [1] was “significant anti-tumor efficacy”. Further, the “endothelial cell Cd31 expression levels (qPCR)” value in experiment [2] is recorded as “more effectively reduced”.
